From paper PMC10066365, “Nemacol is a small molecule inhibitor of C. elegans vesicular acetylcholine transporter with anthelmintic potential” (Nature Communications, 2023)
“And” between values parts separate entries of the source, which are not always exact repeats. Identical values can stand only once.

Key:
[1] = test system: Dirofilaria immitis L3/L4; experiment: Dirofilaria immitis L3/L4 motility assay (DiroImager, 72 h)
[2] = test system: C. elegans; experiment: C. elegans motor phenotype scoring on solid media (Punc/jerky-unc, coiled, paralyzed), wild-type young adults; assay type: in vivo, Caenorhabditis elegans; conditions: for atypical locomotion (number of animals) / coiled (number of animals) / no phene (number of animals) / paralyzed (number of animals): young adults, 20 animals per trial, single replicate counts; for Fraction Coiled / Fraction Jerky-Unc / Fraction No Phenotype / Fraction Parayzed / Fraction Coiled, Averages of 3 biological repeats / Fraction Jerky-Unc, Averages of 3 biological repeats / Fraction No Phenotype, Averages of 3 biological repeats / Fraction Parayzed, Averages of 3 biological repeats / C1 (loose coil) worm count / C2 (tight coil) worm count / J (jerky-unc) worm count / NP (no phene) worm count / P (paralyzed) worm count: 60 min; for rep 1 atypical locomotion / rep 1 coiled / rep 1 no phene / rep 1 paralyzed: N2, count of 20 animals
[3] = 15 µM, N2 adult worms, Averages of 3 biological repeats
[4] = 15 µM, N2 adult worms, Bio Rep 1
[5] = 15 µM, N2 adult worms, Bio Rep 3
[6] = 15 µM, N2 adult worms, Bio rep 2
[7] = 30 µM, N2 adult worms, Averages of 3 biological repeats
[8] = 30 µM, N2 adult worms, Bio Rep 1
[9] = 30 µM, N2 adult worms, Bio Rep 3
[10] = 30 µM, N2 adult worms, Bio rep 2
[11] = 60 µM, N2 adult worms, Averages of 3 biological repeats
[12] = 60 µM, N2 adult worms, Bio Rep 1
[13] = 60 µM, N2 adult worms, Bio Rep 3
[14] = 60 µM, N2 adult worms, Bio rep 2
[15] = N2, 15 µM, adult worms, average of 3 biological repeats
[16] = N2, 30 µM, adult worms, average of 3 biological repeats
[17] = N2, 60 µM, adult worms, average of 3 biological repeats
[18] = N2 series 1 (run with e245, md414), 15 µM
[19] = N2 series 1 (run with e245, md414), 15 µM, single Bio Rep
[20] = N2 series 1 (run with e245, md414), 30 µM
[21] = N2 series 1 (run with e245, md414), 30 µM, single Bio Rep
[22] = N2 series 1 (run with e245, md414), 60 µM
[23] = N2 series 1 (run with e245, md414), 60 µM, single Bio Rep
[24] = N2 series 2 (run with e327), 15 µM
[25] = N2 series 2 (run with e327), 15 µM, single Bio Rep
[26] = N2 series 2 (run with e327), 30 µM
[27] = N2 series 2 (run with e327), 30 µM, single Bio Rep
[28] = N2 series 2 (run with e327), 60 µM
[29] = N2 series 2 (run with e327), 60 µM, single Bio Rep

O=[N+]([O-])c1ccc(N2CCN(CC3CCCCC3)CC2)cc1 [Nemacol-1]
activity against D. immitis (EC50) [1]: low micromolar activity
% effect (motility), DIROIM L4 ([1]; 0.016 µM): 0%
% effect (motility), DIROIM L4 ([1]; 0.08 µM): 0%
% effect (motility), DIROIM L4 ([1]; 0.4 µM): 0%
% effect (motility), DIROIM L4 ([1]; 2 µM): 5%
% effect (motility), DIROIM L4 ([1]; 10 µM): 100%
% effect (motility), DIROIM L4 ([1]; 50 µM): 100%
atypical locomotion (number of animals) ([2]; 3.75uM, one hour): 9 and 12 and 2 and 3 and 11
coiled (number of animals) ([2]; 3.75uM, one hour): 0 and 2 and 1
no phene (number of animals) ([2]; 3.75uM, one hour): 11 and 8 and 16 and 17 and 9
paralyzed (number of animals) ([2]; 3.75uM, one hour): 0
Fraction Coiled [2, 3]: 0.15
Fraction Jerky-Unc [2, 3]: 0.69
Fraction No Phenotype [2, 3]: 0.15
Fraction Parayzed [2, 3]: 0.0185
Fraction Coiled [2, 4]: 0.17
Fraction Jerky-Unc [2, 4]: 0.6111
Fraction No Phenotype [2, 4]: 0.22
Fraction Parayzed [2, 4]: 0
Fraction Coiled [2, 5]: 0.11
Fraction Jerky-Unc [2, 5]: 0.8333
Fraction No Phenotype [2, 5]: 0.0556
Fraction Parayzed [2, 5]: 0
Fraction Coiled [2, 6]: 0.17
Fraction Jerky-Unc [2, 6]: 0.6111
Fraction No Phenotype [2, 6]: 0.17
Fraction Parayzed [2, 6]: 0.05556
any phene, mean % fraction of young adults exhibiting any phenotype (coiled, jerky-Unc or paralyzed) ([2]; 15uM, one hour, mean of three biological replicates): 91.0317%
atypical locomotion (number of animals) ([2]; 15uM, one hour): 6 and 4 and 7 and 5 and 12 and 16
coiled (number of animals) ([2]; 15uM, one hour): 5 and 8 and 13 and 4
no phene (number of animals) ([2]; 15uM, one hour): 0 and 5 and 2 and 4
paralyzed (number of animals) ([2]; 15uM, one hour): 9 and 11 and 1 and 0
Fraction Coiled [2, 7]: 0.46
Fraction Jerky-Unc [2, 7]: 0.31
Fraction No Phenotype [2, 7]: 0.00
Fraction Parayzed [2, 7]: 0.23
Fraction Coiled [2, 8]: 0.61
Fraction Jerky-Unc [2, 8]: 0.2222
Fraction No Phenotype [2, 8]: 0.00
Fraction Parayzed [2, 8]: 0.1667
Fraction Coiled [2, 9]: 0.41
Fraction Jerky-Unc [2, 9]: 0.3529
Fraction No Phenotype [2, 9]: 0.00
Fraction Parayzed [2, 9]: 0.2353
Fraction Coiled [2, 10]: 0.35
Fraction Jerky-Unc [2, 10]: 0.3529
Fraction No Phenotype [2, 10]: 0.00
Fraction Parayzed [2, 10]: 0.2941
Fraction Coiled [2, 11]: 0.60
Fraction Jerky-Unc [2, 11]: 0.10
Fraction No Phenotype [2, 11]: 0.00
Fraction Parayzed [2, 11]: 0.29
Fraction Coiled [2, 12]: 0.69
Fraction Jerky-Unc [2, 12]: 0.125
Fraction No Phenotype [2, 12]: 0.00
Fraction Parayzed [2, 12]: 0.1875
Fraction Coiled [2, 13]: 0.56
Fraction Jerky-Unc [2, 13]: 0.1111
Fraction No Phenotype [2, 13]: 0.00
Fraction Parayzed [2, 13]: 0.3333
Fraction Coiled [2, 14]: 0.57
Fraction Jerky-Unc [2, 14]: 0.07143
Fraction No Phenotype [2, 14]: 0.00
Fraction Parayzed [2, 14]: 0.3571
atypical locomotion (number of animals) ([2]; 60uM, one hour): 2 and 1 and 4
coiled (number of animals) ([2]; 60uM, one hour): 7 and 11 and 17 and 19 and 12 and 8
no phene (number of animals) ([2]; 60uM, one hour): 0
paralyzed (number of animals) ([2]; 60uM, one hour): 11 and 7 and 1 and 0 and 6 and 8
motor defects after 24 h on compound ([2]; 24 h): no longer have obvious motor defects
EC50 ([2]; Caenorhabditis elegans, 1 h, read-out: C. elegans - motor disruption EC50): 7.1 µM
Fraction Coiled [2, 15]: 0.15
Fraction Jerky-Unc [2, 15]: 0.69
Fraction No Phenotype [2, 15]: 0.15
Fraction Parayzed [2, 15]: 0.0185
Fraction Coiled [2, 16]: 0.46
Fraction Jerky-Unc [2, 16]: 0.31
Fraction No Phenotype [2, 16]: 0.00
Fraction Parayzed [2, 16]: 0.23
Fraction Coiled [2, 17]: 0.60
Fraction Jerky-Unc [2, 17]: 0.10
Fraction No Phenotype [2, 17]: 0.00
Fraction Parayzed [2, 17]: 0.29
rep 1 atypical locomotion ([2]; conc 3.75): 3
rep 1 coiled ([2]; conc 3.75): 2
rep 1 no phene ([2]; conc 3.75): 15
rep 1 paralyzed ([2]; conc 3.75): 0
rep 1 atypical locomotion ([2]; conc 15): 3
rep 1 coiled ([2]; conc 15): 4
rep 1 no phene ([2]; conc 15): 7
rep 1 paralyzed ([2]; conc 15): 6
rep 1 atypical locomotion ([2]; conc 60): 2
rep 1 coiled ([2]; conc 60): 3
rep 1 no phene ([2]; conc 60): 0
rep 1 paralyzed ([2]; conc 60): 15
Fraction Coiled, Averages of 3 biological repeats [2, 18]: 0.26
Fraction Jerky-Unc, Averages of 3 biological repeats [2, 18]: 0.67
Fraction No Phenotype, Averages of 3 biological repeats [2, 18]: 0.037
Fraction Parayzed, Averages of 3 biological repeats [2, 18]: 0.037
C1 (loose coil) worm count [2, 19]: 1 and 2
C2 (tight coil) worm count [2, 19]: 3 and 4
Fraction Coiled [2, 19]: 0.28 and 0.22
Fraction Jerky-Unc [2, 19]: 0.6111 and 0.7222 and 0.6667
J (jerky-unc) worm count [2, 19]: 13 and 11 and 12
Fraction Coiled, Averages of 3 biological repeats [2, 20]: 0.59
Fraction Jerky-Unc, Averages of 3 biological repeats [2, 20]: 0.28
Fraction No Phenotype, Averages of 3 biological repeats [2, 20]: 0.00
Fraction Parayzed, Averages of 3 biological repeats [2, 20]: 0.13
C1 (loose coil) worm count [2, 21]: 5
C2 (tight coil) worm count [2, 21]: 5 and 7
Fraction Coiled [2, 21]: 0.56 and 0.67
Fraction Jerky-Unc [2, 21]: 0.1667 and 0.3333
Fraction No Phenotype [2, 21]: 0.00
J (jerky-unc) worm count [2, 21]: 6 and 3
NP (no phene) worm count [2, 21]: 0
Fraction Coiled, Averages of 3 biological repeats [2, 22]: 0.64
Fraction Jerky-Unc, Averages of 3 biological repeats [2, 22]: 0.11
Fraction No Phenotype, Averages of 3 biological repeats [2, 22]: 0.00
Fraction Parayzed, Averages of 3 biological repeats [2, 22]: 0.25
C1 (loose coil) worm count [2, 23]: 3 and 4
C2 (tight coil) worm count [2, 23]: 6 and 8
Fraction Coiled [2, 23]: 0.67 and 0.60
Fraction No Phenotype [2, 23]: 0.00
NP (no phene) worm count [2, 23]: 0
Fraction Coiled, Averages of 3 biological repeats [2, 24]: 0.20
Fraction Jerky-Unc, Averages of 3 biological repeats [2, 24]: 0.69
Fraction No Phenotype, Averages of 3 biological repeats [2, 24]: 0.11
Fraction Parayzed, Averages of 3 biological repeats [2, 24]: 0.00
C2 (tight coil) worm count [2, 25]: 3 and 2
Fraction Jerky-Unc [2, 25]: 0.7778 and 0.6667 and 0.6316
Fraction No Phenotype [2, 25]: 0.11
Fraction Parayzed [2, 25]: 0
J (jerky-unc) worm count [2, 25]: 12 and 14
NP (no phene) worm count [2, 25]: 2
P (paralyzed) worm count [2, 25]: 0
Fraction Coiled, Averages of 3 biological repeats [2, 26]: 0.49
Fraction Jerky-Unc, Averages of 3 biological repeats [2, 26]: 0.36
Fraction No Phenotype, Averages of 3 biological repeats [2, 26]: 0.00
Fraction Parayzed, Averages of 3 biological repeats [2, 26]: 0.15
C2 (tight coil) worm count [2, 27]: 4 and 7 and 6
Fraction No Phenotype [2, 27]: 0.00
NP (no phene) worm count [2, 27]: 0
Fraction Coiled, Averages of 3 biological repeats [2, 28]: 0.57
Fraction Jerky-Unc, Averages of 3 biological repeats [2, 28]: 0.11
Fraction No Phenotype, Averages of 3 biological repeats [2, 28]: 0.00
Fraction Parayzed, Averages of 3 biological repeats [2, 28]: 0.32
C1 (loose coil) worm count [2, 29]: 3 and 4
Fraction Coiled [2, 29]: 0.58 and 0.41 and 0.72
Fraction No Phenotype [2, 29]: 0.00
Fraction Parayzed [2, 29]: 0.3158 and 0.3529 and 0.2778
NP (no phene) worm count [2, 29]: 0
P (paralyzed) worm count [2, 29]: 6 and 5
fold difference in C. elegans EC50, Vesamicol vs Nemacol-1 ([2]; Vesamicol EC50 higher, Nemacol-1 more potent): 5.4 fold
